Results published in patent US20160081338A1, “PLANT GROWTH ACCELERATOR” (Nippon Soda Co., Ltd., priority 2012, published 2016).

Experiments:
[1] = test system: rice seeds (variety: Koshihikari); experiment: Test on acceleration of rice root growth and effect of growing vigourous seedlings; format: in vivo; settings: for Seminal Root Length: paper filter, 25° C.
Procedure: A paper filter was spread in a plastic cup and impregnated with 10 ml of each of the chemical solutions prepared in Example 1 or Comparative Example 1. In non-treatment, water was used in place of the chemical solutions. In treatment plots, 1 replication was provided for each concentration; in the non-treatment plots, 2 replications were provided. Ten rice seeds (variety: Koshihikari) were sown on each plot of the paper filter and cultivated in a growth chamber at 25° C., and the length of roots was measured after 5 and 7 days. The average of measured values excluding the maximum and minimum values was calculated. The ratio (%) of the average value in each treatment plot to the average value in the non-treatment plots was calculated.

[2] = test system: cucumber (Variety:Sagamihanjiro-fushinari); experiment: Test on acceleration of growth of aboveground/underground part of cucumber and effect of growing vigourous seedlings; format: in vivo; settings: after 7 days, dilution 708, active ingredient 250 ppm
Procedure: Seedling-raising culture soil for gardening was placed in a 12 -cm-by-20 -cm plastic pot 10 cm in depth, and 5 seeds of cucumber (Variety:Sagamihanjiro-fushinari) were sown in the soil. Thereinto was uniformly irrigated 500 ml of each chemical solution prepared in Example 1 or Comparative Example 1. Water was used in place of each chemical solution in the non-treatment plots. Each plot has 3 replications. The above-ground and underground parts of the seedlings germinated and grown after 7 days were measured for length. The ratio (%) of the average value in each treatment plot to the average value in the non-treatment plot was calculated.

[3] = After 5 Days, dilution 708, active ingredient 250 ppm
[4] = After 5 Days, dilution 2832, active ingredient 62.5 ppm
[5] = After 5 Days, dilution 11328, active ingredient 15.6 ppm
[6] = After 7 Days, dilution 2832, active ingredient 62.5 ppm
[7] = After 7 Days, dilution 11328, active ingredient 15.6 ppm

Cc1c(Br)c2ccc(F)cc2n1S(=O)(=O)c1ncn(S(=O)(=O)N(C)C)n1 [Amisulbrom, 3-(3-bromo-6-fluoro-2-methylindol-1-ylsulfonyl)-N,N-dimethyl-1H-1,2,4-triazole-1-sulfonamide]
Seminal Root Length To Non-treatment [1, 3]: 120% | Seminal Root Length [1, 3]: 2.46 cm | Seminal Root Length To Non-treatment [1, 4]: 139% | Seminal Root Length [1, 4]: 2.85 cm | Seminal Root Length To Non-treatment [1, 5]: 129% | Seminal Root Length [1, 5]: 2.65 cm | Seminal Root Length ([1]; After 7 Days, dilution 708, active ingredient 250 ppm): 2.91 cm | Seminal Root Length To Non-treatment [1, 6]: 176% | Seminal Root Length [1, 6]: 4.04 cm | Seminal Root Length To Non-treatment [1, 7]: 154% | Seminal Root Length [1, 7]: 3.53 cm | Seminal Root Length To Non-treatment ([1]; after 7 days, dilution 708, active ingredient 250 ppm): 127% | Above-ground Part Length To Non-treatment [2]: 108% | Under-ground Part Length To Non-treatment [2]: 117% | Above-ground Part Length ([2]; 500 ml irrigated into soil): 2.2 cm | Under-ground Part Length ([2]; 500 ml irrigated into soil): 4.3 cm
